Positions count from the first letter of the chain named. Where “and” joins values, the source holds several entries; their conditions need not be identical. Equal values may be shown once.
Key:
eIF2Bα [1] = molecular target: T1, eIF2Bα (Homo sapiens, UniProt Q14232); assay: Differential scanning fluorimetry (Protein Thermal Shift), eIF2Bα Tm; format: binding; settings: individual replicates Rep 1-4, control without metabolite about 64.1
T1 construct: made in house; host or cells: E. coli BL21(DE3)
T1 sequence (Q14232 1-305): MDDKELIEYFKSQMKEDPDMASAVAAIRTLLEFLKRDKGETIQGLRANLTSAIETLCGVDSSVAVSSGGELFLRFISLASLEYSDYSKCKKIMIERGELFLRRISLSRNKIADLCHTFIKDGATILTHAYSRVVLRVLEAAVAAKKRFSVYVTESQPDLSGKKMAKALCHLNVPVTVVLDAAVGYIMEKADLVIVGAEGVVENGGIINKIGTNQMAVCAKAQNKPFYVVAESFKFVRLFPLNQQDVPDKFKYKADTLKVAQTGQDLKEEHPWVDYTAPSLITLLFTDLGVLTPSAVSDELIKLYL
Method: The effect of metabolite binding on eIF2Bα Tm was assessed using the Protein Thermal Shift assay (Thermo Fisher), following manufacturer’s instructions. Briefly, reaction conditions for each 20 μL reaction were: 1.1 μg (1.5 μM) of eIF2Bα, 5 μl Thermal Shift buffer, 1X Thermal Shift dye, and metabolites in dose response. Reactions were run in 384-well format on a QuantStudio 6 Flex instrument (Thermo Fisher). The resulting melt curves were analyzed using Protein Thermal Shift Software, and eIF2Bα Tms for each condition were calculated by fitting to the Boltzmann function.

eIF2Bα [2] = molecular target: T1, eIF2Bα; assay: Isothermal titration calorimetry, wild-type eIF2Bα; format: binding
Method: (§1) Interactions between recombinant protein and sugar phosphates were conducted with a MicroCal PEAQ-ITC (Malvern Panalytical Inc.). Experiments were performed in 25 mM HEPES, 150 mM NaCl, pH 7.5 at 20 °C. The sugar phosphate concentration in the syringe was 1 mM or 1.5 mM, and ~3.5 μL aliquots were injected into cells containing 300 μL eIF2Bα or eIF2B(βδγε) at a concentration of 20–30 μM. The final titration curves were fitted using MicroCal ITC data analysis software, assuming a single binding site per monomer.

eIF2B = molecular target: T2, eIF2B (Homo sapiens, UniProt P49770+Q14232+Q9UI10); assay: eIF2B GEF activity assay, targeted, recombinant wild-type eIF2B; format: biochemical; settings: 500 nM ISRIB, 200 μM F6P, 200 μM G1P
T2 construct: made in house; host or cells: eIF2Bα: E. coli BL21(DE3)
Method: Bodipy-FL-GDP-loaded eIF2 was used as a substrate for recombinant eIF2B. The assay was performed in 384-well plates. Reactions were read on a SpectraMax i3x plate reader (Molecular Devices) using the instrument’s Softmax Pro software with the following parameters: plate temperature = 25 °C; excitation wavelength = 485 nm (15 nm width); emission wavelength = 535 nm (25 nm width); read duration = 30 min at 45 s intervals. Data were analyzed in Prism. GDP release half-lives were calculated by fitting single-exponential decay curves.
For unbiased screening, MIDAS metabolite libraries at 10 mM stock concentration were dispensed into wells of the assay plate using an Echo Acoustic Liquid Handler (Labcyte). In a final assay volume of 10 μL/well, the following conditions were kept constant: 25 nM Bodipy-FL-GDP-loaded eIF2, 4 nM phospho-eIF2, 0.1 mM GDP, 1 mg/mL BSA, 1 nM eIF2B, 10 μM metabolite. A single well was run for each metabolite. For targeted experiments with recombinant wild-type and mutant eIF2Bα, the following conditions were used: 50 nM Bodipy-FL-GDP-loaded eIF2, 0.1 mM GDP, 1 mg/ml BSA, 20 nM eIF2B. For targeted experiments with HEK293T lysates, the following conditions were used: 50 nM Bodipy-FL-GDP-loaded eIF2, 0.1 mM GDP, 1 mg/ml BSA, 0.1 or 0.3 mg/ml lysates.

[3] = molecular target: T3, eIF2B decamer in WT HEK293T lysate (Homo sapiens, UniProt P49770+Q14232+Q9UI10); assay: Sucrose gradient centrifugation, eIF2B complex assembly, WT HEK293T lysate; format: biochemical; settings: 400 mM KCl, 5–20% sucrose gradient
T3 construct: endogenous in cells; host or cells: HEK293T (wild type) lysate
Method: WT or eIF2Bα mutant HEK293T cells were harvested and lysed in 50 mM HEPES, 400 mM KCl, 1 mM DTT, 4 mM Mg(OAc)2, pH 7.5 + 0.5% Triton-X-100 + EDTA-free protease inhibitor cocktail (Roche) on ice for 30 min. Lysates were cleared by centrifugation at 48,000 × g, 4 °C for 30 min. 100 μL of each cleared lysate was loaded onto a 5–20% sucrose gradient prepared in a 13 × 51 mm ultracentrifuge tube using a Gradient Station (Biocomp) and centrifuged in a SW55 Ti rotor at 152,000 × g, 4 °C for 12 h. After centrifugation, 24 × 200 μL fractions were manually collected from the top to bottom of each gradient. Each fraction was subjected to methanol/chloroform precipitation and SDS-PAGE followed by Western Blot with the indicated antibodies. Blots were imaged on a ChemiDoc MP (Bio-Rad), and band intensities were quantified using the instrument’s Image Lab software. Each value was then divided by total intensity obtained across all fractions to determine percent enrichment of each subunit in each fraction.

eIF2Bα^N208Y = molecular target: T4, eIF2Bα^N208Y (Homo sapiens, UniProt Q14232, N208Y); assay: Isothermal titration calorimetry, eIF2Bα N208Y; format: binding; settings: ITC
T4 construct: made in house; host or cells: E. coli BL21(DE3)
T4 sequence (Q14232 1-305 N208Y): T1 sequence (Q14232 1-305) with N208Y
Method: as §1

T3 sequence (P49770 whole entry, one chain of several): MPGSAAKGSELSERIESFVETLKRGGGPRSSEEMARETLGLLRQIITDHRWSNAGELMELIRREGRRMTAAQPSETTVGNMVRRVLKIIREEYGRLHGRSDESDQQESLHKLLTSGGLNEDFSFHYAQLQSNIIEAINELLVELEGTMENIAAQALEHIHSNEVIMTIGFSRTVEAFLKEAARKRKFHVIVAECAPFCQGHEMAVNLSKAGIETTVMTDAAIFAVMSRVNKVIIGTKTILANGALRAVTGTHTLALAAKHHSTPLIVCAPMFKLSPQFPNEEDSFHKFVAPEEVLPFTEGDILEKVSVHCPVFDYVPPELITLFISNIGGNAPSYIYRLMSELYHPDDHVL
T3 sequence (Q9UI10 whole entry, one chain of several): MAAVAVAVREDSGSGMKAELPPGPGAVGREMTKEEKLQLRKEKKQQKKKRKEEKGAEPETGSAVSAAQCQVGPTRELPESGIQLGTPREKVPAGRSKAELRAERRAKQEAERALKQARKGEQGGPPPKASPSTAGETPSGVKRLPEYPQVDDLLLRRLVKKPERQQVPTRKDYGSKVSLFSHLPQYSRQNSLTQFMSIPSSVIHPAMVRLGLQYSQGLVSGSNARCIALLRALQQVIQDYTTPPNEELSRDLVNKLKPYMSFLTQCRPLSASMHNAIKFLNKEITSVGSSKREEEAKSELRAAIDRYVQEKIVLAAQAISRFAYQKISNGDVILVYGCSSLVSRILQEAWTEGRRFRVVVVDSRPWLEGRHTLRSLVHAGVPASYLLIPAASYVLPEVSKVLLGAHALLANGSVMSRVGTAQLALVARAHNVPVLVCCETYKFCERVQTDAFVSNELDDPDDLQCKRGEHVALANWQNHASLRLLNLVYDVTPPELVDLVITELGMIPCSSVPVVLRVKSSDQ
T3 sequence (Q9NR50 whole entry partner, one chain of several): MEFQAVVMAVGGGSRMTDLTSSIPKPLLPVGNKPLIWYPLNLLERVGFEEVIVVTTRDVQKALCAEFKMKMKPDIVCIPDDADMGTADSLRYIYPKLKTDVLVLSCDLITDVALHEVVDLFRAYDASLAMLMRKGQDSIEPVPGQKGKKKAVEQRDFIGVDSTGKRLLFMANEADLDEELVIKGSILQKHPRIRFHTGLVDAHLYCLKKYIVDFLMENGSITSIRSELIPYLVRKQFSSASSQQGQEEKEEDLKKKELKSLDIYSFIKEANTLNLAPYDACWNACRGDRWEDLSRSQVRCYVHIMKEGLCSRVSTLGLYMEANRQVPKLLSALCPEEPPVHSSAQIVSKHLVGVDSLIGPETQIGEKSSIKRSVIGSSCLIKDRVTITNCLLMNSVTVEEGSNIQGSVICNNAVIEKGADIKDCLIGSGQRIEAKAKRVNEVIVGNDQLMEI
T3 sequence (Q13144 whole entry partner, one chain of several): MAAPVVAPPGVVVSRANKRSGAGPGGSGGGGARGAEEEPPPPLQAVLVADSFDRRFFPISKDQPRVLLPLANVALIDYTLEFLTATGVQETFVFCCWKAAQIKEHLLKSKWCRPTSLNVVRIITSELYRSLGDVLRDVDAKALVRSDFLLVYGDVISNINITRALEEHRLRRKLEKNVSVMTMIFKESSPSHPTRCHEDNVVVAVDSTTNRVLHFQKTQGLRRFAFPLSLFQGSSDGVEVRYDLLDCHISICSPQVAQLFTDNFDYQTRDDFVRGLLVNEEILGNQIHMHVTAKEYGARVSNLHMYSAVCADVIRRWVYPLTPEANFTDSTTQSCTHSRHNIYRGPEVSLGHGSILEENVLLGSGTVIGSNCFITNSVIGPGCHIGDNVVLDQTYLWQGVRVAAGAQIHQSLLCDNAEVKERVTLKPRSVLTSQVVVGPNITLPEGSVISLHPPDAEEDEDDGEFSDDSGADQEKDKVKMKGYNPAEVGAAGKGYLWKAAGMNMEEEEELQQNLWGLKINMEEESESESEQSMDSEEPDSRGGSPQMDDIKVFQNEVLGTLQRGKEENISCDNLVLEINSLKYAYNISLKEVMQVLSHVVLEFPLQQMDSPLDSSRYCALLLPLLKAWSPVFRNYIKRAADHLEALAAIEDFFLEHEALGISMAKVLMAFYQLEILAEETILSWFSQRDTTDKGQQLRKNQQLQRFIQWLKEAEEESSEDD
T2 sequence (P49770 whole entry, one chain of several): as the sequence (P49770 whole entry, one chain of several) above
T2 sequence (Q9UI10 whole entry, one chain of several): as the sequence (Q9UI10 whole entry, one chain of several) above
T2 sequence (Q9NR50 whole entry partner, one chain of several): as the sequence (Q9NR50 whole entry partner, one chain of several) above
T2 sequence (Q13144 whole entry partner, one chain of several): as the sequence (Q13144 whole entry partner, one chain of several) above

## O=P(O)(O)O[C@H]1O[C@H](CO)[C@@H](O)[C@H](O)[C@H]1O [G1P, glucose-1-phosphate]
eIF2Bα [1]; 0.33 mM metabolite
  Tm of eIF2Bα: 64.9734 °C and 64.7812 °C and 64.8751 °C and 63.7923 °C
eIF2Bα [1]; 1 mM metabolite
  Tm of eIF2Bα: 65.6948 °C and 65.7116 °C and 65.1967 °C and 64.0445 °C
eIF2Bα [1]; 3.3 mM metabolite
  Tm of eIF2Bα: 65.6535 °C and 64.9673 °C and 65.2055 °C and 64.2208 °C
eIF2Bα [1]; 10 mM metabolite
  Tm of eIF2Bα: 65.8625 °C and 65.8106 °C and 65.498 °C and 64.4559 °C
eIF2Bα [2]; ITC, wild-type eIF2Bα
  interaction with eIF2Bα: did not interact
eIF2B
  effect on GEF activity of recombinant wild-type eIF2B: an inactive metabolite in the enzymatic assay
[3]
  eIF2B decamer formation (migration of eIF2Bα and eIF2Bδ): did not affect the migration of eIF2B subunits

## O=C[C@@H](O)[C@@H](O)[C@H](O)[C@H](O)COP(=O)(O)O [M6P, mannose-6-phosphate]
eIF2Bα [1]; 0.33 mM metabolite
  Tm of eIF2Bα: 64.7587 °C and 64.5257 °C and 64.0751 °C and 63.7209 °C
eIF2Bα [1]; 1 mM metabolite
  Tm of eIF2Bα: 66.0911 °C and 65.9704 °C and 65.2776 °C and 64.2935 °C
eIF2Bα [1]; 5 mM metabolite
  Tm of eIF2Bα: 66.7846 °C and 66.6099 °C and 66.516 °C and 65.7833 °C
eIF2Bα^N208Y
  interaction with eIF2Bα N208Y: does not interact
eIF2Bα [2]; ITC, wild-type eIF2Bα
  Kd: 282 ± 35 µM
eIF2Bα [2]; molar ratio 0.225339
  ITC binding isotherm, heat per mole of injectant: -1.246 kcal/mol
eIF2Bα [2]; molar ratio 0.415168
  ITC binding isotherm, heat per mole of injectant: -1.08 kcal/mol
eIF2Bα [2]; molar ratio 0.606855
  ITC binding isotherm, heat per mole of injectant: -1.012 kcal/mol
eIF2Bα [2]; molar ratio 0.8004
  ITC binding isotherm, heat per mole of injectant: -0.9251 kcal/mol
eIF2Bα [2]; molar ratio 0.995804
  ITC binding isotherm, heat per mole of injectant: -0.7798 kcal/mol
eIF2Bα [2]; molar ratio 1.19307
  ITC binding isotherm, heat per mole of injectant: -0.7719 kcal/mol
eIF2Bα [2]; molar ratio 1.39219
  ITC binding isotherm, heat per mole of injectant: -0.7333 kcal/mol
eIF2Bα [2]; molar ratio 1.59317
  ITC binding isotherm, heat per mole of injectant: -0.643 kcal/mol
eIF2Bα [2]; molar ratio 1.796
  ITC binding isotherm, heat per mole of injectant: -0.5884 kcal/mol
eIF2Bα [2]; molar ratio 2.0007
  ITC binding isotherm, heat per mole of injectant: -0.5938 kcal/mol
eIF2Bα [2]; molar ratio 2.20725
  ITC binding isotherm, heat per mole of injectant: -0.6099 kcal/mol
eIF2Bα [2]; molar ratio 2.41567
  ITC binding isotherm, heat per mole of injectant: -0.5269 kcal/mol
eIF2Bα [2]; molar ratio 2.62594
  ITC binding isotherm, heat per mole of injectant: -0.5106 kcal/mol
eIF2Bα [2]; molar ratio 2.83807
  ITC binding isotherm, heat per mole of injectant: -0.4795 kcal/mol
eIF2Bα [2]; molar ratio 3.05206
  ITC binding isotherm, heat per mole of injectant: -0.426 kcal/mol
eIF2Bα [2]; molar ratio 3.2679
  ITC binding isotherm, heat per mole of injectant: -0.4467 kcal/mol
eIF2Bα [2]; molar ratio 3.48561
  ITC binding isotherm, heat per mole of injectant: -0.4459 kcal/mol
eIF2Bα [2]; molar ratio 3.70517
  ITC binding isotherm, heat per mole of injectant: -0.1953 kcal/mol

Reference: paper PMC8187479, “Sugar phosphate activation of the stress sensor eIF2B” (Nature Communications, 2021)
